Where two headings read alike, the source gives them in different places.
Test system: HBV
Assay: Viral load production from HepAD38 cells, qPCR of the HBV core sequence in supernatant
Format: cell-based
Conditions: HepAD38 cells, 5 days, HBV DNA in supernatant by qPCR
In short: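 EC50 and CC50 come from four-parameter logistic fits of supernatant HBV core DNA (TaqMan qPCR, DNA standards, compared with DMSO wells) and of CellTiter-Glo luminescence.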

[1] = Hepatitis B virus, HePAD38, 120 h, Table 1 ranges, read-out: Activity (viral load lowering EC50)

**Q.** `Cn1nc(C2CC3CC(CNC(=O)C4CC4)CC3C2)c(C(=O)Nc2ccc(F)c(Cl)c2)c1N` (single isomer, unassigned) [Example 42, 5-Amino-N-(3-chloro-4-fluorophenyl)-3-(5-(cyclopropanecarboxamidomethyl)octahydropentalen-2-yl)-1-methyl-1H-pyrazole-4-carboxamide] was tested. Which EC50 (Table 1 ranges, read-out: Activity (viral load lowering EC50)) did it give?
**A.** Its EC50 is < 0.01 µM.

**Q.** `Cn1nc(C2CC3CC(O)C(c4ccccc4)C3C2)c(C(=O)Nc2ccc(F)c(Cl)c2)c1N` (single isomer, unassigned) [Example 141, 5-Amino-N-(3-chloro-4-fluorophenyl)-3-(5-hydroxy-4-phenyloctahydropentalen-2-yl)-1-methyl-1H-pyrazole-4-carboxamide] was tested. Which EC50 (Hepatitis B virus, HePAD38, 120 h, Table 2 ranges, read-out: VL HepAD38 EC50 range) did it give?
**A.** Its EC50 is < 0.1 µM.

**Q.** For `CC(C(F)(F)F)S(=O)(=O)NCC1CC2CC(c3nn(C)c(N)c3C(=O)Nc3ccc(F)c(Cl)c3)CC2C1` (centres unmarked) [Example 98, 5-Amino-N-(3-chloro-4-fluorophenyl)-1-methyl-3-(5-(((2,2,2-trifluoro-1-methylethyl)sulfonamido)methyl)octahydropentalen-2-yl)-1H-pyrazole-4-carboxamide], which EC50 [1] is on record?
**A.** Its EC50 is 0.01 to 0.05 µM.

**Q.** How did the EC50 [1] turn out when `Cn1nc(C2CC3CC(CNC(=O)c4ccns4)CC3C2)c(C(=O)Nc2ccc(F)c(Cl)c2)c1N` (centres unmarked) [Example 60, N-((5-(5-Amino-4-((3-chloro-4-fluorophenyl)carbamoyl)-1-methyl-1H-pyrazol-3-yl)octahydropentalen-2-yl)methyl)isothiazole-5-carboxamide] was run?
**A.** Its EC50 is < 0.01 µM.

**Q.** How did the EC50 [1] turn out when `Cn1nc(C2CC3CC(O)(c4nccs4)CC3C2)c(C(=O)Nc2ccc(F)c(Cl)c2)c1N` (centres unmarked) [Example 18, 5-Amino-N-(3-chloro-4-fluorophenyl)-3-(5-hydroxy-5-(thiazol-2-yl)octahydropentalen-2-yl)-1-methyl-1H-pyrazole-4-carboxamide] was run?
**A.** Its EC50 is < 0.01 µM.

**Q.** Which EC50 [1] does the source give for `Cc1nnc(C2(O)CC3CC(c4nn(C)c(N)c4C(=O)Nc4ccc(F)c(Cl)c4)CC3C2)o1` (centres unmarked) [Example 176] here?
**A.** The EC50 was 0.01 to 0.05 µM.

**Q.** Which EC50 [1] does the source give for `Cn1nc(C2CC3CC(O)(c4cccnn4)CC3C2)c(C(=O)Nc2ccc(F)c(Cl)c2)c1N` (centres unmarked) [Example 190] here?
**A.** Its EC50 is < 0.01 µM.

**Q.** With `Cn1nc(C2CC3CC(CNC(=O)C4CCC4)CC3C2)c(C(=O)Nc2ccc(F)c(Cl)c2)c1N` (centres unmarked) [Example 46, 5-Amino-N-(3-chloro-4-fluorophenyl)-3-(5-(cyclobutanecarboxamidomethyl)octahydropentalen-2-yl)-1-methyl-1H-pyrazole-4-carboxamide] as the molecule, how does the EC50 [1] read?
**A.** The EC50 was < 0.01 µM.

From US20230295096A1, “PYRAZOLE CARBOXAMIDE COMPOUNDS FOR TREATMENT OF HBV” (ASSEMBLY BIOSCIENCES, INC., priority 2020, published 2023)
